{"source": "paper PMC7092479", "about": "“Antiviral activity of silymarin in comparison with baicalein against EV-A71” (BMC Complementary Medicine and Therapies, 2020)", "key": {"[1]": {"test": "Cytotoxicity assay (MTS) in RD cells", "conditions": "human, CC50 (half maximal cytotoxic concentration), 24 h, MTS assay", "description": "(§1) CellTiter 96® AQueous One Solution Cell Proliferation MTS [3-(4,5-dimethylthiazol-2-yl)-5-(3-carboxymethoxyphenyl)-2-(4-sulfophenyl)-2H-tetrazolium] assay kit (Promega, Madison, WI, USA) was used to evaluate the cytotoxicity of the three flavonoids according to the manufacturer’s instruction. Briefly, RD or Vero cells were seeded overnight in 96 well plates with a density of 2 × 10^5 cells/mL. Cells were then treated with various concentrations of silymarin (6.25, 12.5, 25, 50,100 and 200 μg/mL), baicalein (1.68, 3.37, 6.75, 13.5, 27, 54 and 108, μg/mL) and baicalin (2.78, 5.57, 11.15, 22.31, 44.63 and 89.26 μg/mL) prepared in maintenance media. RD or Vero cells without test compounds served as a negative control. The plate was further incubated for 24 h at 37 °C. An aliquot of 20 μL of MTS solution was added to each well and the plate was incubated for 1 h at 37 °C. The absorbance was measured at 490 nm with an Infinite 200 Pro Multiplate Reader (Tecan, Männdedorf, Switzerland) (Supplementary Figure S1). The half-maximal cytotoxic concentration (CC50) and 10% cytotoxic concentration (CC10) for each flavonoid were determined using GraphPad Prism software, version 7 (GraphPad Software, Calif, USA)."}, "RD cells [2]": {"tested_on": "RD cells", "test": "Cytotoxicity assay (MTS) in RD cells", "description": "as §1"}, "EV-A71 [3]": {"tested_on": "EV-A71", "test": "microbe, parasite or virus in culture", "assay_type": "cell-based, Enterovirus 71 (EV-A71) strain 41 (5865/SIN/000009)", "conditions": "for inhibition at 54 µg/mL: EVA71, 54 μg/mL, read-out: Inhibition of EV-A71 viral infectivity, comprehensive assay", "description": "(§2) The plaque assay was performed using the method described by Tan et al. (2012) with minor modifications. Briefly, 6 well plates with 6 × 10^5 RD cells/mL were prepared and incubated to grow overnight at 37 °C. The supernatants collected from antiviral assays were serially diluted (10-folds) and the cell monolayer was infected with each dilution. The plates were incubated at 37 °C for 1 h. After removal of the inoculum, 1.5–2 mL of 0.9% of high viscosity carboxy methyl cellulose (CMC) (Sigma Aldrich, MO, USA) with 2% FBS in DMEM (overlay media) were added to each well. After incubation for 3 days, the overlaid media was removed. The cells were washed three times with phosphate buffered saline (PBS), fixed with 3.7% formaldehyde and stained with 0.5% crystal violet. The plaques were counted manually against a white background and pictures were taken using the CTL Immunospot® S6 Versa (Cleveland, OH, USA). All experiments were performed as three independent replicates.\n(§3) RNA extractions were performed using the QIAamp ViralRNA mini kit (Qiagen, Hilden, Germany) according to the manufacturer’s instructions. TaqMan® Fast virus 1-step master mix (ABI, Carlsbad, Calif, USA) was used to carry out qRT-PCR in the CFX96 TouchTM Real-Time PCR Detection System (Bio-Rad, Calif, USA). The cDNA synthesis was carried out by reverse transcription for 5 min at 50 °C and subsequently amplified for 40 cycles at 95 °C for 3 s, 60 °C for 30 s. A standard graph was plotted using serial dilutions of the standard viral stock. The threshold cycle value (Cq) was calculated using the default setting of the machine. All experiments were performed in triplicates.\nRD cells (2 × 10^4/well) were grown overnight in wells of a 96 well plate. A monolayer of RD cells was pre-treated with various concentrations of a flavonoid for 1 h and incubated at 37 °C. Simultaneously, the virus at MOI of 1 (pfu/ml = 2 × 10^4/0.1 mL) was pre-treated with the same concentrations of the flavonoid for 1 h at 37 °C. After incubation, flavonoid containing media was removed and the RD cells were washed with PBS. The flavonoid-treated virus was added to the pre-treated RD cells for 1 h at 37 °C. The inoculum was removed, RD cells were washed with PBS and replaced with the maintenance media (DMEM supplemented with 2% FBS). After 24 h, the supernatant was collected and infectious viral titers were quantified using the plaque assay. RNA copy number was determined using qRT-PCR [21] [Supplementary Figure S2(e)]."}, "EV-A71 [4]": {"tested_on": "EV-A71", "test": "Cell protection assay (RD cells pre-treated)", "assay_type": "cell-based, Enterovirus 71 (EV-A71) strain 41 (5865/SIN/000009)", "conditions": "54 μg/mL; for inhibition at 54 µg/mL: Enterovirus A, EVA71, RD, read-out: Inhibition of EV-A71 viral infectivity, cell protection assay", "description": "as §2, §3\nRD cells (2 × 10^4/well) were seeded overnight in each well within a 96 well plate. Cells were treated with different concentrations of a flavonoid for 1 h at 37 °C. After incubation, flavonoid containing media was removed and cells were washed with PBS. […] The supernatant was collected after 24 h and the infectious viral titers were quantified using the plaque assay. RNA copy number was determined using qRT-PCR [21] […]"}, "Vero cells": {"tested_on": "Vero cells", "test": "Cytotoxicity assay (MTS) in Vero cells", "description": "as §1"}, "[5]": {"test": "Cytotoxicity assay (MTS) in Vero cells", "conditions": "African green monkey, Vero cells", "description": "as §1"}, "EV-A71 [6]": {"tested_on": "EV-A71", "test": "Time course assay for virucidal activity", "assay_type": "cell-based, Enterovirus 71 (EV-A71) strain 41 (5865/SIN/000009)", "conditions": "54 μg/mL, 60 min co-incubation with EV-A71 at 37 °C, plaque assay", "description": "as §2, with “After removal of the inoculum, 1.5–2 mL of 0.9% of high viscosity carboxy methyl cellulose (CMC) (Sigma Aldrich, MO, USA) with 2% FBS in DMEM (overlay media) were added to each well.” left out, “replicates. RD cells (2 × 10^4/well) were grown overnight in wells of a 96 well plate. […] Cells were infected with the pre-treated virus-flavonoid-mixture and allowed to incubate with the RD cells at 37 °C for 1 h. After 1 h, the inoculum was removed, cells were washed with PBS and maintenance media was added. After 24 h, the supernatant was collected and infectious viral titers were quantified using the plaque assay.” for “replicates.”"}, "EV-A71 [7]": {"tested_on": "EV-A71", "design": "method as in Zhang et al. (2014) [27]", "conditions": "cells treated with 30 μM prior to EV-A71 infection; ref Zhang et al. (2014) [27]; cited from earlier work"}, "EV-A71 [8]": {"tested_on": "EV-A71", "test": "Post-infection assay", "assay_type": "cell-based, Enterovirus 71 (EV-A71) strain 41 (5865/SIN/000009)", "conditions": "added 1 h after RD cells were infected, data not shown", "description": "as §2, with “All experiments were performed as three independent replicates.” left out\nRNA extractions were performed using the QIAamp ViralRNA mini kit (Qiagen, Hilden, Germany) according to the manufacturer’s instructions. […] The threshold cycle value (Cq) was calculated using the default setting of the machine. […]\nRD cells (2 × 10^4/well) were grown overnight in wells of a 96 well plate. […] After 24 h, the supernatant was collected and infectious viral titers were quantified using the plaque assay. RNA copy number was determined using qRT-PCR [21] […]"}, "EV-A71 [9]": {"tested_on": "EV-A71", "test": "microbe, parasite or virus in culture", "assay_type": "cell-based, Enterovirus 71 (EV-A71) strain 41 (5865/SIN/000009)", "conditions": "for inhibition at 54 µg/mL: EVA71, RD, read-out: Inhibition of EV-A71 viral infectivity, virucidal assay", "description": "as §2, §3\nRD cells (2 × 10^4/well) were grown overnight in wells of a 96 well plate. The virus was pre-treated with each of the flavonoids for 1 h at MOI of 1 (pfu/ml = 2 × 10^4/0.1 mL). Cells were infected with the pre-treated virus-flavonoid-mixture. The inoculum was allowed to incubate with the RD cells at 37 ° for 1 h. After 1 h, the inoculum was removed, cells were washed with PBS and maintenance media was replaced. After 24 h, the supernatant was collected and infectious viral titers were quantified using the plaque assay. RNA copy number was determined by qRT-PCR [21] [Supplementary Figure S2(a)]."}, "RD cells [10]": {"tested_on": "RD cells", "design": "method as in Li et al. (2015) [16]", "conditions": "ref Li et al. (2015) [16]; cited from earlier work"}}, "note": "Where two headings read alike, the source gives them in different places."}
{"compound": "O=c1cc(-c2ccccc2)oc2cc(O)c(O)c(O)c12", "note": "[Baicalein]", "values": [{"measurement": "CC50 at 24 h", "setting": "[1]; extrapolated value, above the tested concentration of 108 μg/mL", "result": "421.5 ± 3.23", "unit": "µg/mL"}, {"measurement": "CC10 (10% cytotoxic concentration)", "setting": "RD cells [2]; 24 h, MTS assay", "result": "90.93 ± 3.94", "unit": "µg/mL"}, {"measurement": "CC10 (10% cytotoxic concentration)", "setting": "RD cells [2]; 24 h, MTS assay, listed as baicalein", "result": 90.93, "unit": "µg/mL"}, {"measurement": "Concentration up to which no significant cytotoxic effects were observed", "setting": "RD cells [2]; 24 h incubation", "result": "≤ 54", "unit": "µg/mL"}, {"measurement": "Comprehensive Assay SI (CC50/IC50)", "setting": "EV-A71 [3]", "result": 185.6}, {"measurement": "inhibition at 54 µg/mL", "setting": "EV-A71 [3]; Enterovirus A, plaque assay", "result": 89.4, "unit": "%"}, {"measurement": "inhibition at 54 µg/mL", "setting": "EV-A71 [3]; Enterovirus A, qRT-PCR (RNA copy number)", "result": 83, "unit": "%"}, {"measurement": "IC50", "setting": "EV-A71 [3]; Enterovirus A, EVA71, plaque assay, RD cells and virus both pre-treated 1 h, read-out: Comprehensive Assay IC50", "result": "2.27 ± 4.93", "unit": "µg/mL"}, {"measurement": "Inhibition of EV-A71 viral infectivity, cell protection assay", "setting": "EV-A71 [4]; plaque assay", "result": "no inhibition"}, {"measurement": "inhibition at 54 µg/mL", "setting": "EV-A71 [4]; plaque assay", "result": 2.2, "unit": "%"}, {"measurement": "inhibition at 54 µg/mL", "setting": "EV-A71 [4]; qRT-PCR", "result": 0, "unit": "%"}, {"measurement": "CC10", "setting": "Vero cells; Vero cells, 24 h, MTS assay", "result": "148.9 ± 0.25", "unit": "µg/mL"}, {"measurement": "CC50 at 24 h", "setting": "[5]", "result": "828.7 ± 0.93", "unit": "µg/mL"}, {"measurement": "Virucidal effects against EV-A71 (time course)", "setting": "EV-A71 [6]", "result": 60, "unit": "%"}, {"measurement": "Effect as a prophylactic agent against EV-A71", "setting": "EV-A71 [7]", "result": "non-effective"}, {"measurement": "Inhibition of EV-A71 post-infection", "setting": "EV-A71 [8]", "result": "non-inhibitory"}, {"measurement": "Virucidal Assay SI (CC50/IC50)", "setting": "EV-A71 [9]", "result": 13.64}, {"measurement": "Inhibition of EV-A71 viral infectivity, virucidal assay", "setting": "EV-A71 [9]; 54 μg/mL, plaque assay", "result": 65.0, "unit": "%"}, {"measurement": "inhibition at 54 µg/mL", "setting": "EV-A71 [9]; Enterovirus A, 54 μg/mL, plaque assay", "result": 64, "unit": "%"}, {"measurement": "inhibition at 54 µg/mL", "setting": "EV-A71 [9]; Enterovirus A, 54 μg/mL, qRT-PCR (RNA copy number)", "result": 78.8, "unit": "%"}, {"measurement": "IC50", "setting": "EV-A71 [9]; Enterovirus A, EVA71, plaque assay, RD cells, virus pre-treated 1 h, MOI 1, read-out: Virucidal Assay IC50", "result": "30.9 ± 5.5", "unit": "µg/mL"}]}
{"compound": "O=C(O)[C@H]1O[C@@H](Oc2cc3oc(-c4ccccc4)cc(=O)c3c(O)c2O)[C@H](O)[C@@H](O)[C@@H]1O", "note": "[Baicalin, reference compound]", "values": [{"measurement": "CC50 at 24 h", "setting": "[1]", "result": 42.2, "unit": "µg/mL"}, {"measurement": "CC10 (10% cytotoxic concentration)", "setting": "RD cells [2]; 24 h, MTS assay", "result": "5.46 ± 5.02", "unit": "µg/mL"}, {"measurement": "CC50 (half maximal cytotoxic concentration)", "setting": "RD cells [2]; 24 h, MTS assay", "result": "42.21 ± 4.15", "unit": "µg/mL"}, {"measurement": "CC10 (10% cytotoxic concentration)", "setting": "RD cells [2]; 24 h, MTS assay, listed as baicalin", "result": 5.46, "unit": "µg/mL"}, {"measurement": "CC10", "setting": "Vero cells; Vero cells, 24 h, MTS assay", "result": "1.718 ± 0.16", "unit": "µg/mL"}, {"measurement": "CC50 at 24 h", "setting": "[5]", "result": "30.47 ± 0.06", "unit": "µg/mL"}, {"measurement": "CC50", "setting": "RD cells [10]", "result": 823.53, "unit": "µg/mL"}]}
{"compound": "Silymarin", "values": [{"measurement": "CC10", "setting": "Vero cells", "result": "314.2 ± 0.06", "unit": "µg/mL"}, {"measurement": "CC50", "setting": "Vero cells", "result": "753 ± 0.17", "unit": "µg/mL"}, {"measurement": "Concentration up to which no significant cytotoxicity was shown", "setting": "Vero cells", "result": "≤ 200", "unit": "µg/mL"}, {"measurement": "Virucidal Assay SI (CC50/IC50)", "setting": "EV-A71 [9]", "result": 10.53}]}
